Earlier results as cited in article PMC9798770 (ACS Omega, 2022).

Test system: SARS-CoV-2

Structure (SMILES) | EC50 (read-out: EC50, antiviral activity) [µM] | antiviral activity compared with GRL0617
Cc1ccc(N)cc1C(=O)N[C@H](C)c1cccc2ccccc12 [GRL0617] | ~20 | 
C[C@H](c1cccc2ccccc12)N(C)Cc1ccc(O)cc1 [Jun9-72-2] |  | higher
